Key:
A549 [1] = assay: Inhibition of Akt phosphorylation in insulin-stimulated human A549 cells at 10 uM treated 2 hrs before insulin stimulation measured after 30 mins by ELISA; assay type: cell-based
[2] = Inhibition of Akt phosphorylation in insulin-stimulated human A549 cells treated 2 hrs before insulin stimulation measured after 30 mins by ELISA; assay type: cell-based
A549 [3] = assay: Cytotoxicity against human A549 cells after 24 hrs by FACS analysis; assay type: functional, cell-based; conditions: A549, 24 h
MCF7 = assay: Cytotoxicity against human MCF7 cells after 24 hrs by FACS analysis; assay type: functional, cell-based; conditions: MCF7, 24 h
[4] = Cytotoxicity against human KATO III cells after 24 hrs by FACS analysis; assay type: functional, cell-based, KATO III cell
A549 [5] = assay: Ratio of erufosine IC50 to compound IC50 for inhibition of Akt phosphorylation in insulin-stimulated human A549 cells; assay type: cell-based
A549 [6] = assay: Ratio of miltefosine IC50 to compound IC50 for inhibition of Akt phosphorylation in insulin-stimulated human A549 cells; assay type: cell-based
A549 [7] = assay: Ratio of perifosine IC50 to compound IC50 for inhibition of Akt phosphorylation in insulin-stimulated human A549 cells; assay type: cell-based

| IC50 [2] | SMILES | inhibition (A549 [1]) | IC50 (A549 [3]) | IC50 (MCF7) | IC50 [4] | Ratio IC50 (A549 [5]) | Ratio IC50 (A549 [6]) | Ratio IC50 (A549 [7]) |
| --- | --- | --- | --- | --- | --- | --- | --- | --- |
| 10 µM | CCCCCCCCCCCCCCCCCCCCCCOC[C@@H]1CCC[C@H]1OP(=O)([O-])OCC[N+](C)(C)C (racemic) | 58.2% | 16 µM | 16.3 µM | 11.9 µM | – | – | – |
| 9.1 µM | CCCCCCCCCCCCCCCCCCCCO[C@@H]1CCC[C@H]1COP(=O)([O-])OCC[N+](C)(C)C (racemic) | 58.9% | 9.8 µM | 15.6 µM | 7.7 µM | – | – | – |
| 3.6 µM | CCCCCCCCCCCCCCCCCCCCOC[C@@H]1CCC[C@H]1OP(=O)([O-])OCC[N+](C)(C)C (racemic) | 74.4% | 6.4 µM | 10.8 µM | 8.7 µM | 3 | 3 | 2 |
| 10.3 µM | CCCCCCCCCCCCCCCCCCOC[C@@H]1CCC[C@H]1OP(=O)([O-])OCC[N+](C)(C)C (racemic) | 63.4% | 10.8 µM | 13.8 µM | 10.4 µM | – | – | – |
| 6.6 µM | CCCCCCCCCCCCCOC[C@@H]1CCC[C@H]1OP(=O)([O-])OCC[N+](C)(C)C (racemic) | 65.4% | 6.1 µM | 7.7 µM | 10.2 µM | – | – | – |
| 9.6 µM | CCCCCCCCCCCCCCCCOP(=O)([O-])OCC[N+](C)(C)C [MILTEFOSINE] | 56.3% | 9.7 µM | 11.4 µM | 12.1 µM | – | – | – |
| 16.3 µM | CCCCCCCCCCCCCCCCCCCCO[C@H]1CCC[C@H]1COP(=O)([O-])OCC[N+](C)(C)C (racemic) | 54.4% | 9.7 µM | 16.3 µM | 8.8 µM | – | – | – |
| 6.5 µM | CCCCCCCCCCCCCCCCCCCCCCO[C@@H]1CCC[C@H]1COP(=O)([O-])OCC[N+](C)(C)C (racemic) | 68% | 11.1 µM | 19.5 µM | 17.6 µM | – | – | – |

Continued, molecule first:

| SMILES | IC50 [2] | inhibition (A549 [1]) | IC50 (A549 [3]) | IC50 (MCF7) | IC50 [4] | Ratio IC50 (A549 [5]) | Ratio IC50 (A549 [6]) | Ratio IC50 (A549 [7]) |
| --- | --- | --- | --- | --- | --- | --- | --- | --- |
| CCCCCCCCCCCCO[C@@H]1CCC[C@H]1COP(=O)([O-])OCC[N+](C)(C)C (racemic) | – | 31.7% | – | 14.7 µM | 10.4 µM | – | – | – |
| CCCCCCCCCCCCCO[C@H]1CCC[C@H]1COP(=O)([O-])OCC[N+](C)(C)C (racemic) | – | 44.7% | 10.2 µM | 10.7 µM | 12.1 µM | – | – | – |
| CCCCCCCCCCCCCCCCCCCCCCO[C@H]1CCC[C@H]1COP(=O)([O-])OCC[N+](C)(C)C (racemic) | – | 36.2% | 23.3 µM | 12.8 µM | 8.6 µM | – | – | – |
| CCCCCCCCCCCCCCCCCCO[C@H]1CCC[C@H]1COP(=O)([O-])OCC[N+](C)(C)C (racemic) | – | 35.2% | 17.8 µM | 13.2 µM | 9.2 µM | – | – | – |
| CCCCCCCCCCCCCCCCCCO[C@@H]1CCC[C@H]1COP(=O)([O-])OCC[N+](C)(C)C (racemic) | – | 32.4% | 19.3 µM | 15.7 µM | 8.2 µM | – | – | – |
| CCCCCCCCCCCCO[C@H]1CCC[C@H]1COP(=O)([O-])OCC[N+](C)(C)C (racemic) | – | 30.4% | 26.3 µM | 24.2 µM | 7.4 µM | – | – | – |
| CCCCCCCCCCCCCO[C@@H]1CCC[C@H]1COP(=O)([O-])OCC[N+](C)(C)C (racemic) | – | 40.8% | 9.4 µM | 17.8 µM | 10.1 µM | – | – | – |
| CCCCCCCCCCCCOC[C@@H]1CCC[C@H]1OP(=O)([O-])OCC[N+](C)(C)C (racemic) | – | 36.2% | 11 µM | 11.8 µM | 10.6 µM | – | – | – |
| CCCCCCCCCCCCCCCCCCOP(=O)([O-])OC1CC[N+](C)(C)CC1 [PERIFOSINE] | 5.3 µM | 68% | 7 µM | 13.3 µM | 12.8 µM | – | – | – |
